Source: patent US20120214862A1, “MODULATION OF FACTOR 7 EXPRESSION” (ISIS Pharmaceuticals, Inc., priority 2009, published 2012)
In the oligonucleotide strings, read from the 5' end, every base follows the letter of its sugar. An asterisk marks phosphorothioate; unmarked linkages are phosphodiester. Other units and linkages are bracketed, terminal groups are in braces. A string of capitals states the bases alone. e = 2'-O-(2-methoxyethyl) (MOE); [5mC] = 5-methylcytosine; d = 2'-deoxy (DNA)

Tested on: human Factor 7 mRNA
Assay: Inhibition of human Factor 7 mRNA by 2-10-2 MOE shortmers in HepB3 cells, electroporation, 1,000 nM
Assay type: cell-based
Conditions: electroporation, 1,000 nM oligonucleotide, approximately 24 hours, relative to untreated control cells
Description: Short antisense oligonucleotides (shortmers) were designed to target a Factor 7 nucleic acid. The shortmers in Table 17 were designed as 2-10-2 MOE gapmers. The gapmers are 14 nucleotides in length, wherein the central gap segment is comprised of 10 2′-deoxynucleotides and is flanked on both sides (in the 5′ and 3′ directions) by wings comprising 2 nucleotides each. Each nucleotide in the 5′ wing segment and each nucleotide in the 3′ wing segment has a 2′-MOE modification. The internucleoside linkages throughout each gapmer are phosphorothioate (P═S) linkages. All cytidine residues throughout each gapmer are 5-methylcytidines.
Shortmers were evaluated for their ability to reduce human Factor 7 mRNA in HepB3 cells and compared with one 5-10-5 chimeric oligonucleotide from Table 16, ISIS 407939. HepB3 cells at a density of 20,000 cells per well in a 96-well plate were transfected using electroporation with 1,000 nM of antisense oligonucleotide. After a treatment period of approximately 24 hours, RNA was isolated from the cells and Factor 7 mRNA levels were measured by real-time RT-PCR, as described herein. Factor 7 mRNA levels were adjusted according to total RNA content as measured by RIBOGREEN®. Results are presented in Table 17 as percent inhibition of Factor 7 mRNA, relative to untreated control cells. ISIS 407939 is the first oligonucleotide in […] to which the shortmers were compared, and is marked by an asterisk (*).

Substance | % inhibition of human Factor 7 mRNA [%]
435673 (antisense eA*eG*dA*d[5mC]*d[5mC]*dA*d[5mC]*d[5mC]*d[5mC]*dA*dG*dA*eT*eG) [compound 435673] | 34
435714 (antisense eA*e[5mC]*dT*d[5mC]*dG*dA*dT*dG*dT*dA*d[5mC]*dT*eG*eG) [compound 435714] | 3
435803 (antisense eG*eA*dG*dA*dA*dT*dT*dG*d[5mC]*d[5mC]*d[5mC]*dA*eG*eG) [compound 435803] | 0
435782 (antisense e[5mC]*eG*dT*dG*d[5mC]*dG*d[5mC]*dT*d[5mC]*dA*dG*d[5mC]*eT*e[5mC]) [compound 435782] | 36
435757 (antisense eT*eG*d[5mC]*d[5mC]*dT*dG*dA*dG*dT*dG*d[5mC]*d[5mC]*e[5mC]*e[5mC]) [compound 435757] | 51
435678 (antisense eA*eG*dG*dT*d[5mC]*dG*dT*dG*d[5mC]*dT*d[5mC]*dG*e[5mC]*e[5mC]) [compound 435678] | 67
435699 (antisense eG*e[5mC]*d[5mC]*d[5mC]*d[5mC]*dA*dG*d[5mC]*dT*dG*dA*d[5mC]*eG*eA) [compound 435699] | 48
435742 (antisense eA*eT*dG*dT*dG*dA*dG*dG*dG*dT*dT*d[5mC]*eA*eT) [compound 435742] | 11
435716 (antisense eT*eT*dT*dT*dG*d[5mC]*dA*dG*d[5mC]*d[5mC]*dA*d[5mC]*eT*e[5mC]) [compound 435716] | 22
435758 (antisense e[5mC]*e[5mC]*d[5mC]*dT*dG*dA*dG*d[5mC]*dT*dG*dG*dG*e[5mC]*eA) [compound 435758] | 4
435727 (antisense eT*eG*dG*dA*dG*dT*d[5mC]*dA*dG*d[5mC]*dA*dT*e[5mC]*eG) [compound 435727] | 73
435787 (antisense eG*eA*dG*dT*dG*dT*dG*dA*dG*dG*d[5mC]*dT*eT*e[5mC]) [compound 435787] | 34
435770 (antisense e[5mC]*eT*d[5mC]*dT*dG*dA*dG*dA*dG*dG*d[5mC]*d[5mC]*e[5mC]*e[5mC]) [compound 435770] | 81
435504 (antisense eA*eT*dG*dT*dA*d[5mC]*dT*dG*dG*dG*dA*dG*eA*e[5mC]) [compound 435504] | 8
435840 (antisense eG*eG*dG*d[5mC]*d[5mC]*d[5mC]*dG*d[5mC]*d[5mC]*dA*d[5mC]*dT*eG*eG) [compound 435840] | 0
435693 (antisense eG*eG*d[5mC]*dA*dG*dT*d[5mC]*d[5mC]*dT*dG*dG*dG*eT*e[5mC]) [compound 435693] | 43
435813 (antisense eG*eG*dA*dT*dG*d[5mC]*dA*d[5mC]*dA*d[5mC]*d[5mC]*dA*eG*eG) [compound 435813] | 55
435497 (antisense eG*eG*dG*dA*dG*dA*d[5mC]*d[5mC]*d[5mC]*dT*dG*dG*eT*eG) [compound 435497] | 27
435785 (antisense eA*eG*d[5mC]*dT*dT*d[5mC]*dT*d[5mC]*dA*d[5mC]*d[5mC]*dA*e[5mC]*eG) [compound 435785] | 46
435651 (antisense eA*e[5mC]*dA*dG*dT*dT*d[5mC]*d[5mC]*dG*dG*d[5mC]*d[5mC]*e[5mC]*eT) [compound 435651] | 71
435828 (antisense eG*eA*d[5mC]*d[5mC]*dT*dG*d[5mC]*d[5mC]*d[5mC]*dA*dT*dT*eT*eT) [compound 435828] | 0
435725 (antisense eG*e[5mC]*dA*dG*d[5mC]*d[5mC]*dT*dG*dA*dG*dG*d[5mC]*e[5mC]*eA) [compound 435725] | 79
435721 (antisense eT*eA*dA*dG*dG*dA*dG*dG*d[5mC]*dT*d[5mC]*dA*eG*e[5mC]) [compound 435721] | 12
435760 (antisense eT*e[5mC]*dT*dT*dG*dG*dG*dT*dG*dT*dG*dG*eA*eT) [compound 435760] | 17

Substance | % inhibition of human Factor 7 mRNA [%]
435732 (antisense eG*eA*dA*dA*dA*dG*dT*dG*dA*dG*dA*dG*e[5mC]*eT) [compound 435732] | 0
435793 (antisense eT*eG*d[5mC]*dA*dG*dT*dA*dG*d[5mC]*dA*dG*dA*eT*eG) [compound 435793] | 27
435843 (antisense eG*e[5mC]*dT*dG*dG*dA*dG*d[5mC]*dT*dG*dA*dG*e[5mC]*e[5mC]) [compound 435843] | 0
435483 (antisense e[5mC]*eT*dG*dG*dG*dT*d[5mC]*dA*dT*d[5mC]*dA*dG*e[5mC]*e[5mC]) [compound 435483] | 82
435763 (antisense eA*eG*dG*dA*dG*dA*dA*dA*dG*dG*dT*d[5mC]*eA*eG) [compound 435763] | 2
435810 (antisense e[5mC]*eT*dG*dA*dG*dG*dG*dA*dA*dT*dG*dT*eT*eG) [compound 435810] | 1
435679 (antisense e[5mC]*eG*d[5mC]*dT*dG*dA*dG*dG*dT*d[5mC]*dG*dT*eG*e[5mC]) [compound 435679] | 62
435806 (antisense eT*eG*dA*d[5mC]*d[5mC]*d[5mC]*d[5mC]*dA*d[5mC]*dA*dG*dG*eG*eA) [compound 435806] | 7
435481 (antisense eG*eG*dG*dT*d[5mC]*dA*dT*d[5mC]*dA*dG*d[5mC]*d[5mC]*eG*eG) [compound 435481] | 50
435658 (antisense eT*e[5mC]*dA*d[5mC]*dT*dG*d[5mC]*dA*dG*dT*dA*d[5mC]*eT*eG) [compound 435658] | 60
435493 (antisense eG*eA*d[5mC]*d[5mC]*d[5mC]*dT*dG*dG*dT*dG*dT*dA*e[5mC]*eA) [compound 435493] | 58
435482 (antisense eT*eG*dG*dG*dT*d[5mC]*dA*dT*d[5mC]*dA*dG*d[5mC]*e[5mC]*eG) [compound 435482] | 62
435832 (antisense eT*eG*d[5mC]*dT*d[5mC]*dA*dG*dA*d[5mC]*d[5mC]*dT*dG*eG*e[5mC]) [compound 435832] | 70
435503 (antisense eT*eG*dT*dA*d[5mC]*dT*dG*dG*dG*dA*dG*dA*e[5mC]*e[5mC]) [compound 435503] | 17
435687 (antisense eA*eT*dG*dG*dT*d[5mC]*dA*dG*dT*dG*dA*dG*eG*eA) [compound 435687] | 7
435719 (antisense e[5mC]*eA*dG*d[5mC]*d[5mC]*dT*dT*dG*dG*d[5mC]*dT*dT*eT*e[5mC]) [compound 435719] | 50
435769 (antisense eT*eT*d[5mC]*dT*dT*dT*dG*dA*dA*dA*dA*dA*eT*eA) [compound 435769] | 0
435836 (antisense e[5mC]*eT*dA*dG*dG*dT*d[5mC]*dT*dG*d[5mC]*dA*dG*eG*eG) [compound 435836] | 41
435491 (antisense e[5mC]*e[5mC]*d[5mC]*dT*dG*dG*dT*dG*dT*dA*d[5mC]*dA*e[5mC]*e[5mC]) [compound 435491] | 61
435665 (antisense eA*eG*dG*dT*dA*dT*dT*dT*dT*dT*d[5mC]*d[5mC]*eA*e[5mC]) [compound 435665] | 0
435827 (antisense eT*e[5mC]*dA*dG*dA*dA*dA*dG*dA*dT*dG*d[5mC]*eA*eG) [compound 435827] | 5
435659 (antisense eT*eA*d[5mC]*d[5mC]*d[5mC]*d[5mC]*dT*d[5mC]*dG*dT*dG*dG*e[5mC]*eA) [compound 435659] | 18
435786 (antisense eA*eG*dG*dT*dG*dA*d[5mC]*d[5mC]*d[5mC]*dG*dT*dG*eA*eG) [compound 435786] | 68
435489 (antisense e[5mC]*eT*dG*dG*dT*dG*dT*dA*d[5mC]*dA*d[5mC]*d[5mC]*e[5mC]*e[5mC]) [compound 435489] | 72
